Values quoted from earlier work as cited in patent publication US4318905A, “Nonapeptide and decapeptide agonists of luteinizing hormone releasing hormone containing heterocyclic amino acid residues” (Syntex (U.S.A.) Inc., priority 1980, dated 1982).

Settings: Gly in the 6-position replaced by a D-amino acid

| Substance | activity relative to LH-RH |
| --- | --- |
| [D-Ala^6 ]LHRH | increased activity |
| [D-Phe^6 ]LHRH | increased activity |
| [D-Trp^6 ]LHRH | increased activity |
